Reference: ChEMBL document CHEMBL1131746, “Synthesis of taxoids 5. Synthesis and evaluation of novel water-soluble prodrugs of a 3'-desphenyl-3'-cyclopropyl analogue of docetaxel” (Bioorg Med Chem Lett, 1999)
Values after ≈ are worked out from the molar mass of the structure shown.

Key:
[1] = Solubility in saline; type: physicochemical; details: read-out: S
[2] = system: Mus musculus; experiment: Antitumor activity was measured as change in body weight on day 10 in mice implanted with B16 melanoma cells at dose of 12.5 mg/kg/day; type: functional
[3] = system: Mus musculus; experiment: Compound was evaluated for antitumor activity by iv administration against B16 melanoma implanted sc in mice at dose 12.5 mg/kg/day; type: functional
[4] = Inhibitory concentration required against Colon320 human colon cancer cell line was determined; type: functional, cell-based; details: cancer cell lines
[5] = Inhibitory concentration required against MKN1 human stomach cancer cell line was determined; type: functional, cell-based; details: cancer cell lines
[6] = system: Mus musculus; experiment: Antitumor activity was measured as change in body weight on day 10 in mice implanted with B16 melanoma cells at a dose of 6.3 mg/kg/day; type: functional
[7] = system: Mus musculus; experiment: Compound was evaluated for antitumor activity by iv administration against B16 melanoma implanted sc in mice at a dose of 6.3 mg/kg/day; type: functional
[8] = system: OVCAR-3; experiment: Inhibitory concentration required against OVCAR-3 human ovarian cancer cell line was determined; type: functional, cell-based
[9] = system: SK-BR-3; experiment: Inhibitory concentration required against SK-BR-3 human breast cancer cell line was determined; type: functional, cell-based
[10] = system: SK-LU-1; experiment: Inhibitory concentration required against SK-LU-1 human lung cancer cell line was determined; type: functional, cell-based
[11] = system: WiDr; experiment: Inhibitory concentration required against WiDr human colon cancer cell line was determined; type: functional, cell-based
[12] = Ratio of IC50 of docetaxel / IC50 against Colon 320 cell line was determined; type: functional, COLO 320
[13] = Ratio of IC50 of docetaxel / IC50 against MKN1 cell line was determined; type: functional, MKN-1
[14] = Ratio of IC50 of docetaxel / IC50 against OVCAR-3 cell line was determined; type: functional
[15] = Ratio of IC50 of docetaxel / IC50 against SK-BR-3 cell line was determined; type: functional
[16] = Ratio of IC50 of docetaxel / IC50 against SK-LU-1 cell line was determined; type: functional
[17] = Ratio of IC50 of docetaxel / IC50 against WiDr cell line was determined; type: functional
[18] = system: Mus musculus; experiment: Antitumor activity was measured as change in body weight on day 10 in mice implanted with B16 melanoma cells at dose of 20 mg/kg/day; type: functional
[19] = system: Mus musculus; experiment: Compound was evaluated for antitumor activity by iv administration against B16 melanoma implanted sc in mice at dose 20 mg/kg/day; type: functional

Compound: CC(=O)O[C@@]12CO[C@@H]1C[C@H](O)[C@@]1(C)C(=O)[C@H](O)C3=C(C)[C@@H](OC(=O)[C@H](OC(=O)OCOC(=O)C[C@H](N)C(N)=O)[C@@H](NC(=O)OC(C)(C)C)C4CC4)C[C@@](O)([C@@H](OC(=O)c4ccccc4)[C@H]21)C3(C)C
- solubility [1]: 5000 µg/mL (≈ 5.21 mM)
- Body weight change [2]: -3.2%
- ILS at 12.5 mg/kg/day [3]: 227%

Compound: CC(=O)O[C@@]12CO[C@@H]1C[C@H](O)[C@@]1(C)C(=O)[C@H](O)C3=C(C)[C@@H](OC(=O)[C@H](OC(=O)OCOC(=O)C[C@@H](N)C(N)=O)[C@@H](NC(=O)OC(C)(C)C)C4CC4)C[C@@](O)([C@@H](OC(=O)c4ccccc4)[C@H]21)C3(C)C
- solubility [1]: 50000 µg/mL (≈ 52.1 mM)
- Body weight change [2]: -11.1%
- ILS at 12.5 mg/kg/day [3]: 127%

Compound: CC(=O)O[C@@]12CO[C@@H]1C[C@H](O)[C@@]1(C)C(=O)[C@H](O)C3=C(C)[C@@H](OC(=O)[C@H](OC(=O)OCOC(=O)C[C@H](N)C(=O)O)[C@@H](NC(=O)OC(C)(C)C)C4CC4)C[C@@](O)([C@@H](OC(=O)c4ccccc4)[C@H]21)C3(C)C
- solubility [1]: 1000 µg/mL (≈ 1.04 mM)
- Body weight change [2]: 3.3%
- ILS at 12.5 mg/kg/day [3]: 212%

Compound: CNC(=O)[C@@H](N)CC(=O)OCOC(=O)O[C@@H](C(=O)O[C@H]1C[C@@]2(O)[C@@H](OC(=O)c3ccccc3)[C@@H]3[C@]4(OC(C)=O)CO[C@@H]4C[C@H](O)[C@@]3(C)C(=O)[C@H](O)C(=C1C)C2(C)C)[C@@H](NC(=O)OC(C)(C)C)C1CC1
- solubility [1]: 10000 µg/mL (≈ 10.3 mM)
- Body weight change [2]: -0.5%
- ILS at 12.5 mg/kg/day [3]: 185%

Compound: CCOC(=O)[C@@H](N)CC(=O)OCOC(=O)O[C@@H](C(=O)O[C@H]1C[C@@]2(O)[C@@H](OC(=O)c3ccccc3)[C@@H]3[C@]4(OC(C)=O)CO[C@@H]4C[C@H](O)[C@@]3(C)C(=O)[C@H](O)C(=C1C)C2(C)C)[C@@H](NC(=O)OC(C)(C)C)C1CC1
- solubility [1]: 10000 µg/mL (≈ 10.1 mM)
- Body weight change [2]: -2.9%
- ILS at 12.5 mg/kg/day [3]: 213%

Compound: CC(=O)O[C@@]12CO[C@@H]1C[C@H](O)[C@@]1(C)C(=O)[C@H](O)C3=C(C)[C@@H](OC(=O)[C@H](O)[C@@H](NC(=O)OC(C)(C)C)C4CC4)C[C@@](O)([C@@H](OC(=O)c4ccccc4)[C@H]21)C3(C)C
- IC50 [4]: 0.21 nM
- IC50 [5]: 1.2 nM
- Body weight change [6]: -7.5%
- ILS at 6.3 mg/kg/day [7]: 187%
- IC50 [8]: 0.52 nM
- IC50 [9]: 1.1 nM
- IC50 [10]: 1 nM
- IC50 [11]: 0.027 nM
- Ratio [12]: 23
- Ratio [13]: 1.4
- Ratio [14]: 2.3
- Ratio [15]: 4.3
- Ratio [16]: 1.8
- Ratio [17]: 16

Compound: CC(=O)O[C@@]12CO[C@@H]1C[C@H](O)[C@@]1(C)C(=O)[C@H](O)C3=C(C)[C@@H](OC(=O)[C@H](O)[C@@H](NC(=O)OC(C)(C)C)c4ccccc4)C[C@@](O)([C@@H](OC(=O)c4ccccc4)[C@H]21)C3(C)C.O.O.O [DOCETAXEL]
- IC50 [4]: 4.8 nM
- IC50 [5]: 1.7 nM
- Body weight change [18]: -13%
- ILS at 20 mg/kg/day [19]: 149%
- IC50 [8]: 1.2 nM
- IC50 [9]: 4.7 nM
- IC50 [10]: 1.8 nM
- IC50 [11]: 0.43 nM
